According to patent US11369688B2, “Hybrid telodendrimers” (THE REGENTS OF THE UNIVERSITY OF CALIFORNIA, priority 2016, dated 2022):

Test: Visual observation of drug-loaded crosslinked PEG5K-(Ahx-(NAc-Cys))4/CA4 nanocarriers
Type: physicochemical
Details: 1 mg drug/10 mg PEG5K-(Ahx-(NAc-Cys))4/CA4, crosslinked; effective concentration 2 mg drug/20 mg polymer per ml PBS

Observation | Compound
Clear solution | COc1cccc2c1C(=O)c1c(O)c3c(c(O)c1C2=O)C[C@@](O)(C(=O)CO)C[C@@H]3O[C@H]1C[C@H](N)[C@H](O)[C@H](C)O1 [Doxorubicin]
Clear solution | CC(=O)O[C@@]12CO[C@@H]1C[C@H](O)[C@@]1(C)C(=O)[C@H](O)C3=C(C)[C@@H](OC(=O)[C@H](O)[C@@H](NC(=O)OC(C)(C)C)c4ccccc4)C[C@@](O)([C@@H](OC(=O)c4ccccc4)[C@H]21)C3(C)C [Docetaxel, docetaxel]
Huge precipitate | CCc1c2c(nc3ccc(O)cc13)-c1cc3c(c(=O)n1C2)COC(=O)[C@]3(O)CC [SN-38]
Clear | CC[C@]1(O)C[C@@H]2CN(CCc3c([nH]c4ccccc34)[C@@](C(=O)OC)(c3cc4c(cc3OC)N(C)[C@H]3[C@@](O)(C(=O)OC)[C@H](OC(C)=O)[C@]5(CC)C=CCN6CC[C@]43[C@@H]65)C2)C1 [Vinblastine]
Clear solution | CO[C@H]1C(=O)[C@]2(C)[C@@H](OC)C[C@H]3OC[C@@]3(OC(C)=O)[C@H]2[C@H](OC(=O)c2ccccc2)[C@]2(O)C[C@H](OC(=O)[C@H](O)[C@@H](NC(=O)OC(C)(C)C)c3ccccc3)C(C)=C1C2(C)C [Cabazitaxel, cabazitaxel]
